The record followed here is patent US20250000874A1, “BACTERIAL METABOLITES AND THEIR USE IN REDUCING INFLAMMATION” (LOYOLA UNIVERSITY OF CHICAGO, priority 2023, published 2025).

The test system of one test is mouse peritonitis. Kind of test: LPS-induced mouse peritonitis model, peritoneal neutrophils by flow cytometry (Ly6G). Format: in vivo. The note with it: JE i.p. two consecutive days, LPS i.p. day 3, 4 hours, vs PBS. As for the experimental part: FIG. 4A-4B. Bacterial Supernatant <10 kD fraction inhibits mouse peritonitis in vivo. 6-week old B6 mice were i.p. injected with <10 kD fraction from LF, TS medium, or PBS (500 μL/dose) at day 0 and day 1. At day 2, mice were given LPS (10 μg/mouse) or PBS via i.p. […] (FIG. 4A) The recruited neutrophils were quantified by flow cytometry using the neutrophil markers Ly6G and data were analyzed by FlowJo Software. (FIG. 4B) Neutrophil numbers are shown as mean±s.d., **p<0.01, n=3 per group.
FIG. 9A-9C. FACS representation of mouse peritonitis model. Histograms were made from FACS gating of cells collected from the peritoneal cavity. (FIG. 9A) Mice were pre-treated for two consecutive days with compound JE and then received LPS. (FIG. 9B) Mice received only LPS. (FIG. 9C) Another group received PBS injected for two consecutive days to serve as a negative control. […]
Commensal bacteria are non-invading bacteria that habit the host gastrointestinal tract without causing harm. […] We then measured the ability of the <10 kDa fraction to cross intestinal epithelium with the tight junctions without disrupting the integrity. […] To determine if the <10 kD fraction suppresses LPS-induced inflammatory responses in vivo, we intraperitoneally injected the <10 kDa fraction into C57/Bl6 mice followed by LPS and then analyzed peritoneal numbers of neutrophils by flow cytometry. […]

The subject of the next test is macrophages. The experiment in a line: NC on other TLR pathways, macrophages (Example 7). The following applies: PAM3CSK4, Flagellin, Imiquimod, ODN2006; various concentrations. Format: cell-based. On the procedure: Once ready, macrophages were then incubated with NC at a concentration of 50 uM overnight. The following day they were treated with P(I:C) at 50 ug/mL, 100 ug/mL, or 200 ug/mL, with LPS at 1 ng/ml or 10 ng/ml, or FSL at a concentration of 20 ng/ml or 50 ng/mL. Samples were treated for 4 hours and then Supernatant was then collected and the concentration of TNFα was then determined via the commercially available ELISA MAX Deluxe kit (Biolegend), with measurements reported in pg/mL.
Further investigation of NC's impact on TLR signaling involved treating BMDMs with the TLR 4 agonist LPS. Following overnight treatment with NC cells were treated with LPS at a concentration of 1 ng/ml and 10 ng/ml. After 4 hours supernatant was collected and concentration of TNFα was measured via ELISA. […] Additionally, we explored NCs effects on other TLR agonists. […] We investigated NCs effects on various other TLR pathways including: ½ (PAM3CSK4), TLR 5 (Flagellin), TLR 7 (Imiquimod), and TLR 9 (ODN2006).

The test system of a further test is NF-kB. The experiment in a line: MQ on translocation of NF-kB (p65) to the nucleus in HCECs, western blot. The following applies: MQ 50 μM overnight, FLA 100 ng/ml 3 hours. Format: cell-based, human. As for the experimental part:
Materials and Methods: Human corneal epithelial cells were grown in culture. Cells were then plated in DMEM. The cells cultures were then kept at 37° C. with 5% CO2. Once ready, HCECs were then incubated with MQ at a concentration of 50 uM overnight. […] Samples were treated for 3 hours and then samples were collected. Nuclear and cytoplasmic fractions were obtained using 0.1% NP-40 buffer. Cells were pelleted and the supernatant was discarded. Cells were then treated with 25 μl of NP-40 lysis buffer. Upon addition of the buffer cells were centrifuged for 10 minutes at 3000 rpm at 4° C. The supernatant was collected which is the cytoplasmic fraction and the remaining pellet was the nuclear fraction. The pellet was then washed three times to remove any remaining cytoplasmic fraction.
Both fractions were then treated with 2x SDS loading buffer and the protein was denatured at 100° C. and placed on ice. Proteins were run on a gel at […] until the dye front neared the bottom of the gel. Protein was then dry transferred to a membrane. The membrane was blocked in 5% blocking buffer overnight. The following day the membrane was washed three times with PBS-T and anti-mouse p65-NF-kB rabbit polyclonal antibody was added. […]
The inhibitory effects on the translocation of NF-kB from the cytoplasm to the nucleus following stimulation with FLA was also assessed. […]

As to `CC(=O)O[C@@H]1CC[C@H]2[C@H]3CC[C@H]4CC(F)(F)CC[C@]4(C)[C@H]3CC[C@]12C` [JE, 3,3-Difluoro-5-alpha-androstan-17-beta-yl acetate], the peritoneal neutrophil recruitment entry in the test with mouse peritonitis is recorded as “reduced”. Take `CCCCCCCCCCCCCCCC(=O)N[C@@H](C(=O)O)[C@H](C)O` [NC, N-Palmitoyl-D-Threonine]: in the test on macrophages, the “cytokine production, other TLR pathways” value is listed as “did not exhibit any significant inhibitory effects”.

Turning to Prednicarbate [MQ], in the test with NF-kB, the “translocation of NF-kB to the nucleus” value was “inhibited”.
